Experimental data taken from patent US20100256357A1, “HETEROCYCLES USEFUL AS INHIBITORS OF CARBONIC ANHYDRASE” (Agouron Pharmaceuticals, Inc., priority 2006, published 2010).
Where two headings read alike, the source gives them in different places.

Key:
human CA-IV = biological target: T1, human CA-IV (Homo sapiens, UniProt P22748); assay: Carbonic Anhydrase-IV (CA-IV) Fluorescence Polarization Assay-IC50 Determination; format: binding; settings: for inhibition at 0.2 µM: CA-IV Min dose 200 nM, read-out: CA-IV: % Inh @ Min dose
T1 construct: made in house; host or cells: Escherichia coli BL21(DE3)
T1 sequence (P22748 19-284 limits assumed): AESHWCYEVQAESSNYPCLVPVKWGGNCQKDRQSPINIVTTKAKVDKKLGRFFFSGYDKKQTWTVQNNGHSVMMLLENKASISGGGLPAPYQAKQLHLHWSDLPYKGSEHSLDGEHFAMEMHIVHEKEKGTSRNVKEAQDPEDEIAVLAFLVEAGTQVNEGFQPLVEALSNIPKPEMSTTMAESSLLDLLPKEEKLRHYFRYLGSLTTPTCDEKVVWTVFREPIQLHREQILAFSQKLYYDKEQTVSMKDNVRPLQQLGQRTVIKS
Experimental: Carbonic Anhydrase-IV (CA-IV) Fluorescence Polarization Assay-IC50 Determination
These cells were grown in Luria broth (LB) media (Biomyx) supplemented with 800 uM ZnCl2 at 37° C. until an O.D.600 of 0.7, at which point the cells were induced with 100 uM isopropyl-beta-D-thiogalactopyranoside (IPTG) for 20 hours at 20° C. The frozen pellet was resuspended in 50mM 2-morpholinoethanesulfonic acid (MES) at pH 6.0, 100 mM NaCl, 800 uM ZnCl2 and EDTA-Free protease inhibitors (Roche). The cells were lysed with a microfluidizer, the lysate was spun at 40,000 rpm for 45 minutes at 4° C., and the soluble fraction was dialyzed overnight at 4° C. in 50 mM MES pH 6.0, and 100 mM NaCl. The soluble fraction was then put over a 100 ml SP-Sepharose High Performance (GE Healthcare) column and eluted with a 50 mM MES pH 6.0, 750 mM NaCl gradient. The peak fractions were then concentrated, via an Amicon Ultra-4 10,000 MWCO (Millipore) spin column to 2.0 mL and loaded onto a Sephacryl S-100 High Resolution (GE Healthcare) column in 25 mM tris(hydroxymethyl)aminomethane hydrochloride (Tris-HCl) pH 7.0, and 100 mM NaCl. The peak fractions were then concentrated, via an Amicon Ultra-4 10,000 MWCO (Millipore) spin column, to 7.0 mg/mL and left exposed at room temperature overnight. […] T.; et al. Carbonic Anhydrase Inhibitors. Med. Res. Rev. […]
Assays were conducted in a final volume of 100 μL in 50 mM Tris/HCl (pH 7.6), 100 mM Na2SO4 and 0.005% Tween-20 in a 96-well black assay plate.

human CA-II = biological target: T2, human CA-II (Homo sapiens, UniProt P00918); assay: Carbonic Anhydrase-II (CA-II) Fluorimetric Assay-IC50 Determination; format: biochemical
T2 construct: purchased Sigma-Aldrich C6165
In short: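 Compounds were tested as an 11-point, 1:3 dilution series in duplicate, with a top final concentration of 1 μM, in 50 mM Tris/HCl pH 7.6, 100 mM Na2SO4 and 0.005% Tween-20. Human CA-II activity was followed as the rate of fluorescein diacetate hydrolysis at 25° C, with excitation at 488 nm and emission at 538 nm.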

[1] = CA II Min dose 100 nM, read-out: CAII % Inh @ Min dose

SMILES	IC50 (human CA-IV; read-out: IC50_CAIV)	also measured
NS(=O)(=O)c1ccc(-n2nc(C(=O)N3CC4CCC3C4)nc2Cc2ccccc2)cc1 (centres unmarked) [Example R-8, 4-[3-(2-azabicyclo[2.2.1]hept-2-ylcarbonyl)-5-benzyl-1H-124-triazol-1-yl]benzenesulfonamide]	–	inhibition at 0.2 µM (human CA-IV): 56.9%; IC50 (human CA-IV; read-out: CA-IV IC50): 194 nM; inhibition at 0.1 µM (human CA-II; [1]): 99%; inhibition at 0.1 µM (human CA-II; read-out: CA-II % at 100 nM): 99%
CN(C(=O)c1nc(Cc2ccccc2)n(-c2ccc(S(N)(=O)=O)cc2)n1)C1CCCCC1 [Example R-25, 1-[4-(aminosulfonyl)phenyl]-5-benzyl-N-cyclohexyl-N-methyl-1H-124-triazole-3-carboxamide]	–	inhibition at 0.2 µM (human CA-IV): 69.3%; IC50 (human CA-IV; read-out: CA-IV IC50): 385 nM; inhibition at 0.1 µM (human CA-II; [1]): 101%; IC50 (human CA-II; Kd ND, read-out: CA-II IC50): 2.51 nM
NS(=O)(=O)c1ccc(-n2nc(C(F)(F)F)c3c2CCNC3)c(C(=O)NCc2ccccc2)c1 [KK-1p, 5-(aminosulfonyl)-N-benzyl-2-[3-(triflurormethyl)-4,5,6,7-tetrahydro-1H-pyrazolo[4,3-c]pyridin-1-yl]benzamide]	> 5000 nM	–
NS(=O)(=O)c1ccc(-n2nc(C(=O)NCC3(c4ccccc4)CC3)nc2Cc2ccccc2)cc1 [Example R-12, 1-[4-(aminosulfonyl)phenyl]-5-benzyl-N-[(1-phenylcyclopropyl)methyl]-1H-124-triazole-3-carboxamide]	–	inhibition at 0.2 µM (human CA-IV): 62.3%; IC50 (human CA-IV; read-out: CA-IV IC50): 206 nM; inhibition at 0.1 µM (human CA-II; [1]): 101%; inhibition at 0.1 µM (human CA-II; read-out: CA-II % at 100 nM): 101%
CCOC(=O)c1cc(C)n(-c2ccc(S(N)(=O)=O)cn2)n1 [mm-1, ethyl 1-[5-(aminosulfonyl)pyridin-2-yl]-5-methyl-1H-pyrazole-3-carboxylate]	1050 nM	–
CCNC(=O)c1cc(C)n(-c2ccc(S(N)(=O)=O)cc2C(=O)NCc2ccccc2)n1 [KK-1h, 1-{4-(aminosulfonyl)-2-[(benzylamino)carbonyl]phenyl}-N-ethyl-5-methyl-1H-pyrazole-3-carboxamide]	2190 nM	–
CCNC(=O)c1cc(C)n(-c2ccc(S(N)(=O)=O)cc2C(=O)NCc2ccncc2)n1 [KK-1o, 1-[4-(aminosulfonyl)-2-{[(pyridin-4-ylmethyl)amino]carbonyl}phenyl]-N-ethyl-5-methyl-1H-pyrazole-3-carboxamide]	4530 nM	–
NS(=O)(=O)c1ccc(-n2nc3c(c2CN2CCOCC2)CCCC3)cc1 [II-1c, 4-[3-(morpholin-4-ylmethyl)-4,5,6,7-tetrahydro-2H-indazol-2-yl]benzenesulfonamide]	≥ 5000 nM	–
NS(=O)(=O)c1ccc(-n2nc(CO)cc2Cc2ccc(Br)cc2)c(F)c1 [qq-3c, 4-[5-(4-bromobenzyl)-3-(hydroxymethyl)-1H-pyrazol-1-yl]-3-fluorobenzenesulfonamide]	468 nM	–
CN(Cc1cc(Cc2ccccc2)n(-c2ccc(S(N)(=O)=O)cc2F)n1)C1CCCCC1 [Example -1h, 4-(5-benzyl-3-{[cyclohexyl(methyl)amino]methyl}-1H-pyrazol-1-yl)-3-fluorobenzenesulfonamide]	186 nM	–
NS(=O)(=O)c1ccc(-n2nc(CO)c3c2CCCC3)cc1 [qq-3d, 4-[3-(hydroxymethyl)-4,5,6,7-tetrahydro-1H-indazol-1-yl]benzenesulfonamide]	≥ 5000 nM	–
Cc1cc(C(=O)O)nn1-c1ccc(S(N)(=O)=O)cc1 [mm-2a, 1-[4-(aminosulfonyl)phenyl]-5-methyl-1H-pyrazole-3-carboxylic acid]	≥ 5000 nM	–
NS(=O)(=O)c1ccc(-n2nc(CO)cc2Cc2ccccc2)cc1 [qq-3b, 4-[5-benzyl-3-(hydroxymethyl)-1H-pyrazol-1-yl]benzenesulfonamide]	436 nM	–
NS(=O)(=O)c1ccc(-n2nc(C(=O)O)cc2Cc2ccccc2)cc1 [pp-2a, 1-[4-(aminosulfonyl)phenyl]-5-benzyl-1H-pyrazole-3-carboxylic acid]	492 nM	–
NS(=O)(=O)c1ccc(-n2nc(C(F)(F)F)c3c2CCNC3)c(C(=O)NCc2ccncc2)c1 [KK-1n, 5-(aminosulfonyl)-N-(pyridin-4-ylmethyl)-2-[3-(trifluoromethyl)-4,5,6,7-tetrahydro-1H-pyrazolo[4,3-c]pyridin-1-yl]benzamide]	> 5000 nM	–
NS(=O)(=O)c1ccc(-n2nc(CO)cc2Cc2ccccc2)c(F)c1 [qq-3, 4-[5-Benzyl-3-(hydroxymethyl)-1H-pyrazol-1-yl]-3-fluorobenzenesulfonamide]	372 nM	–
CCNC(=O)c1cc(C)n(-c2ccc(S(N)(=O)=O)cc2C(=O)NCC)n1 [KK-1m, 1-{4-(aminosulfonyl)-2-[(ethylamino)carbonyl]phenyl}-N-ethyl-5-methyl-1H-pyrazole-3-carboxamide]	> 5000 nM	–
CCNC(=O)c1cc(C)n(-c2ccc(S(N)(=O)=O)cc2C(=O)OC(C)C)n1 [KK-1r]	1310 nM	–

Continued, in another order:

IC50 (human CA-IV; read-out: IC50_CAIV)	SMILES	also measured
400 nM	C[C@@H]1CN(Cc2cc(Cc3ccccc3)n(-c3ccc(S(N)(=O)=O)cc3)n2)C[C@H](C)O1 [QQ-1d, 4-(5-benzyl-3-{[(2R,6S)-2,6-dimethylmorpholin-4-yl]methyl}-1H-pyrazol-1-yl)benzenesulfonamide]	–
308 nM	CN(Cc1cc(Cc2ccc(Cl)cc2)n(-c2ccc(S(N)(=O)=O)cc2)n1)C1CCCCC1 [QQ-1o, 4-[5-(4-chlorobenzyl)-3-{[cyclohexyl(methyl)amino]methyl}-1H-pyrazol-1-yl]benzenesulfonamide]	–
168 nM	Cc1cccc(Cc2cc(CN3CCCC(C#N)C3)nn2-c2ccc(S(N)(=O)=O)cc2F)c1 (centres unmarked) [PP-1a, 4-[3-[(3-cyanopiperidin-1-yl)methyl]-5-(3-methylbenzyl)-1H-pyrazol-1-yl]-3-fluorobenzenesulfonamide]	–
379 nM	CCCN(C)Cc1cc(Cc2ccccc2)n(-c2ccc(S(N)(=O)=O)cc2)n1 [QQ-1e, 4-(5-benzyl-3-{[methyl(propyl)amino]methyl}-1H-pyrazol-1-yl)benzenesulfonamide]	–
301 nM	CCCN(C)Cc1cc(Cc2ccccc2)n(-c2ccc(S(N)(=O)=O)cc2F)n1 [QQ-1, 4-(5-benzyl-3-{[methyl(propyl)amino]methyl}-1H-pyrazol-1-yl)-3-fluorobenzenesulfonamide]	–
≥ 5000 nM	CCNCc1cc(S(N)(=O)=O)ccc1-n1nc(C(F)(F)F)c2c1CCCC2 [LL-1, 3-[(Ethylamino)methyl]-4-[3-(trifluoromethyl)-4,5,6,7-tetrahydro-1H-indazol-1-yl]-benzene-sulfonamide]	–
145 nM	COCCN(C)Cc1cc(Cc2cccc(C)c2)n(-c2ccc(S(N)(=O)=O)cc2F)n1 [PP-1b, 3-fluoro-4-[3-{[(2-methoxyethyl)(methyl)amino]methyl}-5-(3-methylbenzyl)-1H-pyrazol-1-yl]benzenesulfonamide]	–
314 nM	CN(Cc1cc(Cc2ccccc2)n(-c2ccc(S(N)(=O)=O)cc2)n1)C1CCCCC1 [QQ-1m, 4-(5-benzyl-3-{[cyclohexyl(methyl)amino]methyl}-1H-pyrazol-1-yl)benzenesulfonamide]	–
278 nM	CCCCN(C)Cc1cc(Cc2ccccc2)n(-c2ccc(S(N)(=O)=O)cc2F)n1 [QQ-1j, 4-(5-benzyl-3-{[butyl(methyl)amino]methyl}-1H-pyrazol-1-yl)-3-fluorobenzenesulfonamide]	–
253 nM	NS(=O)(=O)c1ccc(-n2nc(CN3CC=CCC3)cc2Cc2ccc(Br)cc2)c(F)c1 [QQ-1k, 4-[5-(4-bromobenzyl)-3-(3,6-dihydropyridin-1(2H)-ylmethyl)-1H-pyrazol-1-yl]-3-fluorobenzenesulfonamide]	–
455 nM	CCCCN(C)Cc1cc(Cc2ccc(Cl)cc2)n(-c2ccc(S(N)(=O)=O)cc2)n1 [QQ-1n, 4-[3-{[butyl(methyl)amino]methyl}-5-(4-chlorobenzyl)-1H-pyrazol-1-yl]benzenesulfonamide]	–
552 nM	NS(=O)(=O)c1ccc(-n2nc(CN3CC=CCC3)cc2Cc2ccccc2)cc1 [QQ-1l, 4-[5-benzyl-3-(3,6-dihydropyridin-1(2H)-ylmethyl)-1H-pyrazol-1-yl]benzenesulfonamine]	–
> 5000 nM	Cc1cc(C(=O)N2CCOCC2)nn1-c1ccc(S(N)(=O)=O)cc1CNCc1ccccc1 [LL-1a, 3-[(benzylamino)methyl]-4-(5-methyl-3-(morpholin-4-ylcarbonyl)-1H-pyrazol-1-yl]benzenesulfonamide]	–
563 nM	NS(=O)(=O)c1ccc(-n2nc(CN3CCOCC3)cc2Cc2ccc(Cl)cc2)cc1 [QQ-1a, 4-[5-(4-chlorobenzyl)-3-(morpholin-4-ylmethyl)-1H-pyrazol-1-yl]benzenesulfonamide]	–
